# From patent publication US20140303256A1 (UNIVERSITY INDUSTRY COOPERATION GROUP OF KYUNG HEE …, priority 2011, published 2014)
# Experiments:
# MMP-9 [1] = experiment: MMP-9 expression by RT-PCR in spinal cord tissue after spinal cord injury; assay type: in vivo; settings: mouse treated with fluoxetine (200 mg/kg i.p. once a day) after spinal cord injury vs saline
# Description: (§1) Adult male C57BL/6 mice (20˜30 g) were anaesthetized with chloral hydrate (500 mg/kg) and T8˜T10 were exposed. The exposed T9 was subjected to contusion injury (by dropping a weight at the impact strength of 40 kd) using PSI (Precision Systems and Instrumentation) impactor. After confirming that a certain damage was given within the error range based on the data of injury level, the incision sites were sealed. After disinfecting the incision sites, the mice were raised in cages (2 mice/cage). Urination was induced by massaging the bladder three times a day. […] Louis, Mo.) dissolved in saline was immediately administered into injured mice via intraperitoneal injection (200 mg/kg). Saline was administered for the control. The administration was performed once a day and continued for 2 weeks. […] Spinal nerve was cut, followed by embedding in OCT compound, which was sectioned by using a cryostat. The spinal cord tissue for the extraction of RNA and protein proceeded to perfusion with PBS. Then, the spinal cord tissue was cut 0.8 cm from the injured area, which was stored in liquid nitrogen at −80° C. until use. RNA was extracted by using TRIZOL Reagent (Invitrogen) according to manufacturer's manual. Total reaction mixture (20 μl) containing 1 μg of RNA was prepared, followed by RT-PCR using MMLV reverse transcriptase (Invitrogen). […]
# ZO-1 [2] = experiment: ZO-1 immunohistochemical staining of spinal cord sections after spinal cord injury; assay type: in vivo, mouse; settings: tissue sections after spinal cord injury, vs saline
# Description: Adult male C57BL/6 mice (20˜30 g) were anaesthetized with chloral hydrate (500 mg/kg) and T8˜T10 were exposed. The exposed T9 was subjected to contusion injury (by dropping a weight at the impact strength of 40 kd) using PSI (Precision Systems and Instrumentation) impactor. After confirming that a certain damage was given within the error range based on the data of injury level, the incision sites were sealed. After disinfecting the incision sites, the mice were raised in cages (2 mice/cage). Urination was induced by massaging the bladder three times a day. […] Louis, Mo.) dissolved in saline was immediately administered into injured mice via intraperitoneal injection (200 mg/kg). Saline was administered for the control. The administration was performed once a day and continued for 2 weeks. […] Spinal nerve was cut, followed by embedding in OCT compound, which was sectioned by using a cryostat. […] 10 μm tissue sections were reacted under the condition proposed in each primary antibody manual, followed by color development by using secondary antibodies. For immunofluorescence staining, secondary antibodies of Jackson were used. For DAB color development, Vectastatin kit (Vector) was used.
# MMP-9 [3] = experiment: MMP-9 activation by gelatin zymography of spinal cord tissue after spinal cord injury; assay type: in vivo, mouse; settings: spinal cord tissue 1 day (peak time) after spinal cord injury, vs saline
# Description: (§2) Adult male C57BL/6 mice (20˜30 g) were anaesthetized with chloral hydrate (500 mg/kg) and T8˜T10 were exposed. The exposed T9 was subjected to contusion injury (by dropping a weight at the impact strength of 40 kd) using PSI (Precision Systems and Instrumentation) impactor. […] Louis, Mo.) dissolved in saline was immediately administered into injured mice via intraperitoneal injection (200 mg/kg). Saline was administered for the control. The administration was performed once a day and continued for 2 weeks. […] Then, the gel was loaded in renaturing buffer (2.5% Triton X-100), followed by incubation at room temperature for 30 minutes. The gel was loaded in developing buffer (50 mM Tris-HCl, pH 8.5, 0.2 M NaCl, 5 mM CaCl2, 0.02% Brii35), which stood at 37° C. for 24 hours. […] At this time, the clear band on the zymogram gel indicated gelatinase activity.
# CCL-4 = CCL-4 chemoattractant expression by RT-PCR after spinal cord injury; assay type: in vivo, mouse; settings: 1~5 days after spinal cord injury
# Description: (§3) Adult male C57BL/6 mice (20˜30 g) were anaesthetized with chloral hydrate (500 mg/kg) and T8˜T10 were exposed. The exposed T9 was subjected to contusion injury (by dropping a weight at the impact strength of 40 kd) using PSI (Precision Systems and Instrumentation) impactor. After confirming that a certain damage was given within the error range based on the data of injury level, the incision sites were sealed. After disinfecting the incision sites, the mice were raised in cages (2 mice/cage). Urination was induced by massaging the bladder three times a day. […] Louis, Mo.) dissolved in saline was immediately administered into injured mice via intraperitoneal injection (200 mg/kg). Saline was administered for the control. The administration was performed once a day and continued for 2 weeks. RNA was extracted by using TRIZOL Reagent (Invitrogen) according to manufacturer's manual. Total reaction mixture (20 μl) containing 1 μg of RNA was prepared, followed by RT-PCR using MMLV reverse transcriptase (Invitrogen).
# spinal cord injury mouse = experiment: Animal behavioral test (BBB test), recovery of exercise function after spinal cord injury; assay type: in vivo
# Description: Adult male C57BL/6 mice (20˜30 g) were anaesthetized with chloral hydrate (500 mg/kg) and T8˜T10 were exposed. The exposed T9 was subjected to contusion injury (by dropping a weight at the impact strength of 40 kd) using PSI (Precision Systems and Instrumentation) impactor. After confirming that a certain damage was given within the error range based on the data of injury level, the incision sites were sealed. After disinfecting the incision sites, the mice were raised in cages (2 mice/cage). Urination was induced by massaging the bladder three times a day. […] Louis, Mo.) dissolved in saline was immediately administered into injured mice via intraperitoneal injection (200 mg/kg). Saline was administered for the control. The administration was performed once a day and continued for 2 weeks. BBB test is the method to evaluate the recovery of various nerve fascicles controlling exercise function in combination, in which scores are recorded from 0 to 21. […] A normal mouse got 21 scores for that. So, the exercise function is regarded to be improved as the score got higher. […] The mice were let go freely in the box so as for the mice to be adapted to the experimental environment. […] The average of BBB test scores obtained from those five trained experimenters was considered as the final BBB score for the mouse. To eliminate personal prejudice on the test animal, the experimenters were not given any information on the mice. They only observed the mice 4 minutes every time to give scores.
# ZO-1 [4] = experiment: ZO-1 (tight junction protein) amount by western blot after spinal cord injury; assay type: in vivo, mouse; settings: vs saline
# Description: Adult male C57BL/6 mice (20˜30 g) were anaesthetized with chloral hydrate (500 mg/kg) and T8˜T10 were exposed. The exposed T9 was subjected to contusion injury (by dropping a weight at the impact strength of 40 kd) using PSI (Precision Systems and Instrumentation) impactor. After confirming that a certain damage was given within the error range based on the data of injury level, the incision sites were sealed. After disinfecting the incision sites, the mice were raised in cages (2 mice/cage). Urination was induced by massaging the bladder three times a day. […] Louis, Mo.) dissolved in saline was immediately administered into injured mice via intraperitoneal injection (200 mg/kg). Saline was administered for the control. The administration was performed once a day and continued for 2 weeks. […] The protein was transferred onto nitrocellulose membrane, followed by western blot according to the protocol described in each antibody data sheet.
# MMP-2 [5] = experiment: MMP-2 activation by gelatin zymography of spinal cord tissue after spinal cord injury; assay type: in vivo, mouse; settings: spinal cord tissue 1 day (peak time) after spinal cord injury, vs saline
# Description: as §2
# CCL-3 = CCL-3 chemoattractant expression by RT-PCR after spinal cord injury; assay type: in vivo, mouse; settings: 1~5 days after spinal cord injury
# Description: as §3
# [6] = maximal electroshock convulsion test in mouse; Leander 1992; cited from earlier work
# MMP-2 [7] = experiment: MMP-2 expression by RT-PCR in spinal cord tissue after spinal cord injury; assay type: in vivo; settings: mouse treated with fluoxetine (200 mg/kg i.p. once a day) after spinal cord injury vs saline
# Description: as §1
# neutrophils = experiment: Neutrophil infiltration into spinal cord by flow cytometry; assay type: in vivo, mouse; settings: flow cytometry (high CD45 and Gr-1), 1 and 5 days after spinal cord injury, vs saline
# Description: (§4) Adult male C57BL/6 mice (20˜30 g) were anaesthetized with chloral hydrate (500 mg/kg) and T8˜T10 were exposed. The exposed T9 was subjected to contusion injury (by dropping a weight at the impact strength of 40 kd) using PSI (Precision Systems and Instrumentation) impactor. After confirming that a certain damage was given within the error range based on the data of injury level, the incision sites were sealed. After disinfecting the incision sites, the mice were raised in cages (2 mice/cage). Urination was induced by massaging the bladder three times a day. […] Louis, Mo.) dissolved in saline was immediately administered into injured mice via intraperitoneal injection (200 mg/kg). Saline was administered for the control. The administration was performed once a day and continued for 2 weeks. The spinal cord tissue was extracted 1 and 5 days after spinal cord injury, which was added into PBS. The spinal cord tissue in PBS was mechanically disrupted with a dounce homogenizer, followed by centrifugation at 1,100 rpm for 10 minutes. The obtained pellet was resuspended in FBS containing buffer, which was centrifuged at 3,000 rpm for 7 minutes. […] After washing with FBS containing buffer, neutrophils and macrophages infiltrated into spinal cord 1 and 5 days after spinal cord injury were measured by using Becton Dickinson LSR Benchtop Flow Cytometer (BD Biosciences). […]
# MMP-12 = MMP-12 expression by RT-PCR in spinal cord tissue after spinal cord injury; assay type: in vivo; settings: mouse treated with fluoxetine (200 mg/kg i.p. once a day) after spinal cord injury vs saline
# Description: as §1
# macrophages = experiment: Macrophage infiltration into spinal cord by flow cytometry; assay type: in vivo, mouse; settings: flow cytometry (high CD45 and CD11b), 1 and 5 days after spinal cord injury, vs saline
# Description: as §4
# NMDA receptor = settings: previous report; cited from earlier work
Structure (SMILES),expression of MMP-9 (MMP-9 [1]),ZO-1 (immunohistochemical staining) (ZO-1 [2]),MMP-9 activity (gelatinase activity) (MMP-9 [3]),expression of CCL-4 (CCL-4),crossing frequency of forelegs and hind legs during walking (spinal cord injury mouse; 672 h),"BBB points, course (spinal cord injury mouse; from 1 week after spinal cord injury, compared with saline only)","BBB point (spinal cord injury mouse; ip, 200 mg/kg)",amount of ZO-1 (ZO-1 [4]),MMP-2 activity (gelatinase activity) (MMP-2 [5]),expression of CCL-3 (CCL-3),"anticonvulsant effects of carbamazepine, phenytoin, and ameltolide [6]",expression of MMP-2 (MMP-2 [7]),number of neutrophils in spinal cord tissues (neutrophils),expression of MMP-12 (MMP-12),number of macrophages in spinal cord tissues (macrophages),neurotoxic effect of Aβ (NMDA receptor)
CNCCC(Oc1ccc(C(F)(F)F)cc1)c1ccccc1 (stereo not shown) [fluoxetine],significantly reduced,hardly reduced,significantly reduced,suppressed,approximately 50%,began to increase,10.2±0.92,not reduced,significantly reduced,suppressed,increased,significantly reduced,significantly reduced,significantly reduced,significantly reduced,–
C[C@]12N[C@H](Cc3ccccc31)c1ccccc12 [MK-801],–,–,–,–,–,–,–,–,–,–,–,–,–,–,–,inhibited
